Source: patent US9193714B2, “Fluorinated estrogen receptor modulators and uses thereof” (priority 2011, dated 2015)
Like-named read-outs stand apart in the source and are kept apart here.

Legend:
ER-α = biological target: T1, ER-α (Homo sapiens, UniProt P03372); assay: Breast Cancer Cell ER-α in Cell Western Assay (SP1); format: cell-based; settings: MCF7, read-out: ER In-Cell Western Assay (SP1); Max Response
T1 construct: endogenous in cells; host or cells: MCF-7
Protocol: MCF-7 cells were adjusted to a concentration of 200,000 cells per mL in RPMI containing 10% charcoal-stripped FBS and 20 mM HEPES. 16 microliters of the cell suspension (3200 cells) was added to each well of a poly-D-lysine 384 well plate, and the cells were incubated overnight to allow the cells to adhere. The following day an eleven point, serial semilog dilution of each compound was added to the cells in 16 μL at a final concentration ranging from 0.3-0.000003 μM. At 4 or 24 hr post compound addition, the cells were fixed (10% formalin in PBS) for 20 minutes. Cells were permeablized in PBS 0.1% Triton and blocked with LICOR blocking buffer (50 μl/well, 90′). The wells were then incubated overnight at 4° C. with SP1 rabbit monoclonal Ab (Thermo Scientific) diluted 1:1000 in LICOR blocking buffer/0.1% Tween-20. Wells which were treated with blocking buffer with Tween but no antibody were used as a background control. Wells were washed with 0.1% Tween-20/PBS and then incubated in goat anti-rabbit IRDye™ 800 CW (LICOR Inc.; 1:1000) and DRAQ5 DNA dye (1:2000 for 2 mM stock) diluted in LICOR blocking buffer containing 0.1% Tween-20 and 0.01% SDS for 60 minutes. Cells were washed (50 μl/well, 5′ each) in 0.1% Tween-20/PBS. Plates were scanned on a LICOR Odyssey infrared imaging system. Integrated intensities in the 800 nm channel and 700 nm channel were measured to determine levels of ER and DNA respectively. Percent ER levels were determined as follows: (Integrated intensity 800 nm sample/integrated intensity 700 nm sample)/(Integrated intensity 800 nm untreated cells/integrated intensity 700 nm untreated cells)×100=% ER levels.

MCF-7 cells = assay: Breast Cancer Cell Viability Assay (MCF7 Viability Assay); format: cell-based; settings: for IC50: Homo sapiens, MCF7, 120 h, read-out: MCF7 Viability Assay IC50
Protocol: MCF-7 cells were adjusted to a concentration of 20,000 cells per mL in RPMI containing 10% FBS and 20 mM HEPES. 16 microliters of the cell suspension (320 cells) was added to each well of a 384 well plate, and the cells were incubated overnight to allow the cells to adhere. The following day an eleven point, serial semilog dilution of each compound was added to the cells in 16 μL at a final concentration ranging from 0.3-0.000003 μM. After 5 days' compound exposure, 16 μL of CellTiter-GLo (Promega, Madison Wis.) was added to the cells the relative luminescence units (RLUs) of each well was determined. CellTiter-Glo added to 32 μL of medium without cells was used to obtain a background value. The Percent viability of each sample was determined as follows: (RLU sample-RLU background/RLU untreated cells-RLU background)×100=% viability.

[1] = MCF-7 cells, 5 days' compound exposure, CellTiter-Glo

T1 sequence (P03372 whole entry): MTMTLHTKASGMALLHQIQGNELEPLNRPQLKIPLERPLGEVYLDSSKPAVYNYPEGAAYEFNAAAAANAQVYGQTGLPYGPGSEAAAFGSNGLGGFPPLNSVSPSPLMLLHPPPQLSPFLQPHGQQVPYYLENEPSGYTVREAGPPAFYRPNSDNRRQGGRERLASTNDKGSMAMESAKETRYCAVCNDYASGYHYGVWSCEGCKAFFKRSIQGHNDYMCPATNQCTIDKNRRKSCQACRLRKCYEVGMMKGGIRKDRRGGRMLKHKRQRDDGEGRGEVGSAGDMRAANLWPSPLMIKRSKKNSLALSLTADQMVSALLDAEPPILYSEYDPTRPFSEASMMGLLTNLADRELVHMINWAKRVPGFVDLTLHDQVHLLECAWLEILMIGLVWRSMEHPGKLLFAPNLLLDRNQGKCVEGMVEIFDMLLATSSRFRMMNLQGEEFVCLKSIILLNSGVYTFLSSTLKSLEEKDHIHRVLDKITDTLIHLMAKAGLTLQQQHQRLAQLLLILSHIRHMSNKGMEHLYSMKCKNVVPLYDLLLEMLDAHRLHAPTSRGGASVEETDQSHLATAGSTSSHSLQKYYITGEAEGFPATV

SMILES | Emax (ER-α) [%] | IC50 (MCF-7 cells; [1]) [nM] | MCF7 Viability Assay Max Response (MCF-7 cells; [1]) | IC50 (MCF-7 cells) [nM]
CC1=C(c2cccc(O)c2)C(c2ccc(OCCN3CCC(F)CC3)cc2)Oc2ccc(O)cc21 (stereo not drawn) [Example 17, 2-(4-(2-(4-Fluoropiperidin-1-yl)ethoxy)phenyl)-3-(3-hydroxyphenyl)-4-methyl-2H-chromen-6-ol] | 60 to 85 | < 1 | ++ (a single % value ≧ 50%) | 
CC1=C(c2cccc(O)c2)[C@H](c2ccc(OCCN3CC[C@@H](CF)C3)cc2)Oc2ccc(O)cc21 (single isomer, unassigned) [Example 2b] | > 85 |  | ++ (a single % value ≧ 50%) | < 1
CCN(CCF)CCOc1ccc(C2Oc3ccc(O)cc3C(C)=C2c2cccc(O)c2)cc1 (stereo not drawn) [Example 23, 2-(4-(2-(Ethyl(2-fluoroethyl)amino)ethoxy)phenyl)-3-(3-hydroxyphenyl)-4-methyl-2H-chromen-6-ol] | < 60 | > 1 | ++ (a single % value ≧ 50%) | 
CC1=C(c2cccc(O)c2)C(c2ccc(OCCN3CC[C@@H](C(F)F)C3)cc2)Oc2ccc(O)cc21 (stereo partly drawn) [Example 21, (R)-2-(4-(2-(3-(Difluoromethyl)pyrrolidin-1-yl)ethoxy)phenyl)-3-(3-hydroxyphenyl)-4-methyl-2H-chromen-6-ol] | > 85 |  | ++ (a single % value ≧ 50%) | < 1
CC1=C(c2ccc(C#N)cc2)C(c2ccc(OC[C@H](C)N3CC[C@@H](CF)C3)cc2)Oc2ccc(O)cc21 (stereo partly drawn) [Example 16] | > 85 | > 1 | ++ (a single % value ≧ 50%) | 
CC1=C(c2ccc(Cl)cc2)C(c2ccc(OCCN3CC[C@@H](CF)C3)cc2)Oc2ccc(O)cc21 (stereo partly drawn) [Example 4, 3-(4-Chlorophenyl)-2-(4-(2-((R)-3-(fluoromethyl)pyrrolidin-1-yl)ethoxy)phenyl)-4-methyl-2H-chromen-6-ol] | > 85 | > 1 | ++ (a single % value ≧ 50%) | 
CC1=C(c2cc(O)cc(F)c2)C(c2ccc(OCCN3CC[C@@H](CF)C3)cc2)Oc2ccc(O)cc21 (stereo partly drawn) [Example 10, 3-(3-Fluoro-5-hydroxyphenyl)-2-(4-(2-((R)-3-(fluoromethyl)pyrrolidin-1-yl)ethoxy)phenyl)-4-methyl-2H-chromen-6-ol] | > 85 | < 1 | ++ (a single % value ≧ 50%) | 
CC1=C(c2cc(O)cc(F)c2)C(c2ccc(OC[C@H](C)N3CC[C@@H](CF)C3)cc2)Oc2ccc(O)cc21 (stereo partly drawn) [Example 12, 3-(3-Fluoro-5-hydroxyphenyl)-2-(4-((S)-2-((R)-3-(fluoromethyl)pyrrolidin-1-yl)propoxy)phenyl)-4-methyl-2H-chromen-6-ol] | > 85 | < 1 | ++ (a single % value ≧ 50%) | 
Cc1c(-c2ccc(O)cc2)n(Cc2ccc(OCCN3CC[C@@H](CF)C3)cc2)c2ccc(O)cc12 [Example 28, (R)-1-(4-(2-(3-(Fluoromethyl)pyrrolidin-1-yl)ethoxy)benzyl)-2-(4-hydroxyphenyl)-3-methyl-1H-indol-5-ol] | > 85 | < 1 | ++ (a single % value ≧ 50%) | 
CC1=C(c2cccc(O)c2)[C@@H](c2ccc(OCCN3CC[C@@H](CF)C3)cc2)Oc2ccc(O)cc21 (single isomer, unassigned) [Example 2a] | > 85 |  | ++ (a single % value ≧ 50%) | > 1
